Here are results for five compounds from patent US8569265B2, “Deuterated analogs of (4S)-4-ethyl-4-hydroxy-11-[2- (trimethylsilyl)ethyl]-1H-pyrano[3′, 4′:6,7] indolizino [1,2-b]quinoline-3,14(4H, 12H)-dione and methods of use thereof” (BioNumerik Pharmaceuticals, Inc., priority 2011, dated 2013).

Where two headings read alike, the source gives them in different places.

For data set [1], the system named is wild-type human ovarian cancer cells (A2780/WT). As to the kind of experiment: Sulforhodamine B (SRB) cytotoxicity assay, A2780/WT. Format: cell-based. To be noted: for IC50: Homo sapiens, A2780/WT, 2 hour drug treatments; for IC50 values in words (inhibition of cell growth): wild-type (A2780/WT) ovarian cancer cells. An excerpt: (§1) The sulforhodamine B (SRB) assay was used to assess cytotoxicity and absorbance at 570 nm (A570) in order to calculate the percentage of cell control (or percent cell survival) for wild-type human ovarian cancer cells (A2780/WT) and doxorubicin-resistant human ovarian cancer cells (A2780/DX5) treated with BNP1350, BNP10120 (a di-deuterated analog of BNP1350) and BNP10121 (a tetra-deuterated analog of BNP1350).
(§2) Roswell Park Memorial Institute (RPMI 1640) medium, fetal bovine serum (FBS), and L-glutamine were purchased from Gibco BRL. Drugs were dissolved in sterile dimethylsulfoxide (DMSO), from American Type Culture Collection (ATCC) for stock solutions (2.5 to 5.0 mM). Subsequent dilutions were made using cell culture medium (prior to adding the drug to cells). SRB was purchased from Sigma and dissolved in 1.0 percent acetic acid. Trichloroacetic acid was purchased from VWR International. BNP1350, BNP10120 (a di-deuterated analog of BNP1350) and BNP10121 (a tetra-deuterated analog of BNP1350) were synthesized and purified by BioNumerik Pharmaceuticals, Inc.
(§3) Cells were manipulated in a Class IIA/B3 Biological Safety Cabinet (Forma Scientific) and maintained at 37° C. in a humidified atmosphere containing 5% CO2 in a water-jacketed cell culture incubator (Forma Scientific). Cells were counted using a Coulter-Z1 counter (Beckman-Coulter). Following drug treatment, plates were washed using a Biomek 2000 station (Beckman) and, following exposure to SRB dye, plates were washed using an automated plate washer (Model EL404, Bio-Tek Instruments). Percentage of control was correlated to A570 values and determined using a Model EL800 plate reader (Bio-Tek Instruments).
(§4) Wild-type human ovarian cancer cells (A2780/WT) and doxorubicin-resistant human ovarian cancer cells (A2780/DX5) were cultured in RPMI 1640 medium supplemented with 10% fetal bovine serum and 2 mM L-glutamine, and grown in a 37° C. incubator with 5% CO2. Population doubling times for the two cell lines used in this study encompassed a total of five cell doublings corresponding to approximately 5 days for A2780/WT and A2780/DX5 cells. Both cell lines were maintained as monolayered cultures in T-25 or T-75 flasks and then seeded to microtiter plate wells for experiments described herein.
(§5) In brief, cells were seeded (500 cells/well in 100 μL total volume) into 96-well microtiter plates and allowed to attach for 24 hours prior to treatment with BNP1350, BNP10120 or BNP10121 for 2 hours. The aforementioned compounds were dissolved in DMSO for use in cytotoxicity experiments where inhibition of cell growth was measured using the SRB assay.
(§6) Following this 2 hour drug treatment, the BNP1350, BNP10120 and BNP10121 were removed, cells were washed with drug-free media (200 μL) and then drug-free media (200 μL) was added to the cells and cells were allowed to continue growing at 37° C. with 5% CO2 before the SRB assay was performed (total experiment time from time of seeding was 5 days, during which time a total of 5 cell doublings had occurred).
(§7) Prior to SRB assays, cell viability was monitored by evaluation of microtiter plate wells. Dead cells detach and float while living cells remain attached to the bottom of the cell well.
(§8) The sulforhodamine B (SRB) cytotoxicity assay (see, Skehan P, et al., New colorimetric cytotoxicity assay for anticancer-drug screening. J. Natl. Cancer Inst. 82:1107-1112 (1990)) was used to determine the cytotoxic effects of BNP1350, BNP10120 or BNP10121 on cell growth in vitro. Briefly, after the medium was aspirated from individual plate wells, trichloroacetic acid (100 μL of 10.0% solution) was added to each well, and the plates were incubated at 4° C. for at least 1 hour. The plates were washed five-times with water using an automated microplate washer (Model EL 404, Bio-Tek Instruments), SRB solution (100 μL of 0.4 grams SRB dissolved in 100 mL 1.0 percent acetic acid) was added, and plates remained at room temperature for 15 minutes. […]
For orientation: The SRB assay estimates cell density from bound dye.

Data set [2] relates to doxorubicin-resistant human ovarian cancer cells (A2780/DX5). As to the kind of experiment: Sulforhodamine B (SRB) cytotoxicity assay, A2780/DX5. The settings on record: for IC50: Homo sapiens, A2780/DX5, 2 hour drug treatments; for IC50 values in words (inhibition of cell growth): doxorubicin resistant (A2780/DX5) ovarian cancer cells. Format: cell-based.
From the text: as §1, §2, §3, §4, §5, §6, §7, §8

Data set [3] relates to malignant melanoma and carcinoma cells (colon carcinoma, glioblastoma, and small lung cell cancer cells). The settings on record: cited from earlier work.
Data set [4] has as its system PHA-stimulated lymphocytes and normal glial cells. To be noted: 90% D2O; cited from earlier work.
For data set [5] the following is noted: clinical trial; cited from earlier work.
Where [6] appears, read: average of Test 1 and Test 2, read-out: IC50 Average.

As usually defined, the IC50 is the point on the concentration scale where inhibition reaches its midpoint. In the case of `CC[C@@]1(O)C(=O)OCc2c1cc1n(c2=O)Cc2c-1nc1ccccc1c2CC[Si](C)(C)C` [BNP1350, (4S)-4-Ethyl-4-hydroxy-11-[2-(trimethylsilyl)ethyl]-1H-pyrano[3′,4′:6,7]indolizino[1,2-b]quinoline-3,14(4H,12H)-dione, reference compound], the IC50 was found to be 1.9 nM in data set [1] (setting [6]); 1.9 nM in data set [1] (read-out: IC50 Test 1); 1.8 nM in data set [1] (read-out: IC50 Test 2); 7.3 nM in data set [2] (setting [6]); 7.7 nM in data set [2] (read-out: IC50 Test 1); 6.9 nM in data set [2] (read-out: IC50 Test 2). For the same compound, the “IC50 values in words (inhibition of cell growth)” value in data set [1] and in data set [2] was “nanomolar” in each case.
In the case of `[2H]C1([2H])c2c(nc3ccccc3c2CC[Si](C)(C)C)-c2cc3c(c(=O)n21)COC(=O)[C@]3(O)CC` [BNP10120, (4S)-12,12-Dideutero-4-ethyl-4-hydroxy-11-[2-(trimethylsilyl)ethyl]-1H-pyrano[3′,4′:6,7]indolizino[1,2-b]quinoline-3,14(4H,12H)-dione], the IC50 in data set [1] (setting [6]) came out at 2.6 nM; in data set [1] (read-out: IC50 Test 1), 3.5 nM; in data set [1] (read-out: IC50 Test 2) it was 1.6 nM; in data set [2] (setting [6]), 8.5 nM; in data set [2] (read-out: IC50 Test 1) it was 9.9 nM; in data set [2] (read-out: IC50 Test 2) it was 7.1 nM. The “IC50 values in words (inhibition of cell growth)” value in data set [1] and in data set [2] was “nanomolar” throughout.
Turning to `[2H]C([2H])(c1c2c(nc3ccccc13)-c1cc3c(c(=O)n1C2)COC(=O)[C@]3(O)CC)C([2H])([2H])[Si](C)(C)C` [BNP10121, (S)-4-Ethyl-4-hydroxy-11-[1,1,2,2-tetradeutero-2-(trimethylsilyl)ethyl]-1H-pyrano[3′,4′:6,7]indolizino[1,2-b]quinoline-3,14(4H,12H)-dione], the IC50 in data set [1] (setting [6]) stood at 6.1 nM; in data set [1] (read-out: IC50 Test 1) it was 6.1 nM; in data set [1] (read-out: IC50 Test 2), 6 nM; in data set [2] (setting [6]) it was 11.7 nM; in data set [2] (read-out: IC50 Test 1), 12 nM; in data set [2] (read-out: IC50 Test 2), 11.3 nM. In addition, the “IC50 values in words (inhibition of cell growth)” value in data set [1] and in data set [2] was “nanomolar” each time.
With `[2H]O[2H]` [D2O], the cells killed in data set [3] (90% D2O, malignant melanoma and carcinoma cells) was 70%; in data set [4], 5%. Further, the “viable fraction of malignant cells” value in data set [3] (9 days of treatment with 90% D2O) is “about 0.1%”.
For the compound `[2H]C([2H])([2H])Oc1ccc(C(CN(C([2H])([2H])[2H])C([2H])([2H])[2H])C2(O)CCCCC2)cc1` (centres unmarked) [SD-254], in data set [5], the “rate of metabolism relative to Effexor” value is reported as “half as fast” and the “time after which pharmacologically-effective levels of the drug were maintained” value is listed as 24 hours.
